The target of this assay is Cell division control protein 42 homolog (Homo sapiens) (UniProt P60953). The assay is described as follows: blockade of fluorescent GTP uptake by Cdc42 wt – biochemical, bead-based multiplex flow cytometry, oxadiazole series, SAR follow-up (AID 2037). The following applies: GST-Cdc42 beads, Bodipy-FL-GTP binding, Ki calculated from EC50.

Here are results for 29 molecules from PubChem BioAssay AID2037 (NMMLSC, 2009).

Cell division control protein 42 homolog (Homo sapiens), sequence (P60953 whole entry, looked up): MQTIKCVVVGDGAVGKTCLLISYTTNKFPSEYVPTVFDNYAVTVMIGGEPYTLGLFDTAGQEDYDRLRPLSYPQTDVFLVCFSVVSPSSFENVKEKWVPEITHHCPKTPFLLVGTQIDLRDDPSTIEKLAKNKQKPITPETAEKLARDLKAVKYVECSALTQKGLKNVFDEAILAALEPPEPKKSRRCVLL

For `COc1ccc(-c2noc(CCC(=O)N3CCN(c4cccc(C)c4C)CC3)n2)cc1`, the Ki (usually the equilibrium dissociation constant of an inhibitor or competing ligand from its target) is 240 nM.

For the molecule `Cc1ccc(C)c(N2CCN(C(=O)CCc3nc(-c4cccc(Br)c4)no3)CC2)c1`, the Ki is 450 nM.

On to `COc1ccc(-c2noc(CCCC(=O)N3CCN(c4cc(C)ccc4C)CC3)n2)cc1`, for which the Ki was 1310 nM.

Turning to `COc1ccc(-c2noc(CCC(=O)N3CCN(c4ccccc4C(F)(F)F)CC3)n2)cc1`, the Ki was 420 nM.

With `Cc1ccc(C)c(N2CCN(C(=O)CCc3nc(-c4ccc(N(C)C)cc4)no3)CC2)c1`, the Ki is 250 nM.

In the case of `COc1ccccc1-c1noc(CCC(=O)N2CCN(c3cc(C)ccc3C)CC2)n1`, the Ki was 330 nM.

Regarding `COc1ccc(-c2noc(CCC(=O)N3CCN(c4cccc(OC)c4)CC3)n2)cc1`, the Ki was 2550 nM.

Turning to `COc1ccc(-c2noc(CCC(=O)N3CCC(c4cc(C)ccc4C)CC3)n2)cc1`, the Ki is 300 nM.

As for `COc1ccc(-c2noc(CCC(=O)N3CCN(c4ccccc4Br)CC3)n2)cc1`, the inhibition constant (Ki) is 490 nM.

`COc1ccc(-c2noc(CCC(=O)N3CCN(c4cc(C)ccc4C)CC3)n2)cc1`: the inhibition constant Ki is 580 nM.

For the molecule `Cc1ccc(C)c(N2CCN(C(=O)CCc3nc(-c4cccc(Cl)c4)no3)CC2)c1`, the Ki is 460 nM.

In the case of `COc1ccc(-c2noc(CCC(=O)N3CCN(c4ccc(C)cc4)CC3)n2)cc1`, the Ki was 120 nM.

For the molecule `COc1ccc(-c2noc(CCC(=O)N3CCN(c4cccc(C(F)(F)F)c4)CC3)n2)cc1`, the Ki was 410 nM.

As to `COc1cccc(-c2noc(CCC(=O)N3CCN(c4cc(C)ccc4C)CC3)n2)c1`, the Ki was 590 nM.

For the molecule `Cc1cccc(-c2noc(CCC(=O)N3CCN(c4cc(C)ccc4C)CC3)n2)c1`, the Ki is 220 nM.

As to `COc1ccc(-c2noc(CCC(=O)N3CCN(c4ccccc4F)CC3)n2)cc1`, the Ki was 140 nM.

Turning to `Cc1ccc(C)c(N2CCN(C(=O)CCc3nc(-c4ccccc4)no3)CC2)c1`, the Ki was 850 nM.

For `Cc1ccc(-c2noc(CCC(=O)N3CCN(c4cc(C)ccc4C)CC3)n2)cc1`, the Ki is 920 nM.

For `COc1ccc(-c2cccc(CCC(=O)N3CCN(c4cc(C)ccc4C)CC3)c2)cc1`, the Ki is 780 nM.

As to `COc1ccc(-c2noc(CCC(=O)N3CCN(c4ccccc4Cl)CC3)n2)cc1`, the Ki was 170 nM.

As to `COc1ccc(-c2noc(CCC(=O)N3CCN(c4ccccc4C)CC3)n2)cc1`, the Ki is 360 nM.

`Cc1ccc(C)c(N2CCN(C(=O)CCc3nc(-c4ccc(Cl)cc4)no3)CC2)c1`: the Ki is 360 nM.

As to `Cc1ccc(C)c(N2CCN(C(=O)CCc3nc(-c4ccccc4C(F)(F)F)no3)CC2)c1`, the Ki was 1050 nM.

Consider `COc1ccc(-c2coc(CCC(=O)N3CCN(c4cc(C)ccc4C)CC3)n2)cc1`, for which the Ki was 480 nM.

Take `Cc1ccc(C)c(N2CCN(C(=O)CCc3nc(-c4ccc(C(F)(F)F)cc4)no3)CC2)c1`: the Ki is 680 nM.

`Cc1ccc(C)c(N2CCN(C(=O)CCc3nc(-c4ccc(Br)cc4)no3)CC2)c1`: the Ki is 340 nM.

For the molecule `COc1ccc(-c2noc(CCC(=O)N3CCN(c4ccc(OC)cc4)CC3)n2)cc1`, the Ki is 100 nM.

For `Cc1ccc(C)c(N2CCN(C(=O)CCc3nc(-c4ccccc4Br)no3)CC2)c1`, the Ki is 490 nM.

Consider `Cc1ccc(C)c(N2CCN(C(=O)CCc3nc(-c4ccc(F)cc4)no3)CC2)c1`, for which the Ki was 80 nM.
